Test results from ChEMBL document CHEMBL1135422 (J Med Chem, 2002).

What was measured:
Cholinesterase = Cholinesterase (Homo sapiens, UniProt P06276)
Acetylcholinesterase = target: T1, Acetylcholinesterase (Rattus norvegicus, UniProt P37136); experiment: biochemical
T1 sequence (P37136 whole entry): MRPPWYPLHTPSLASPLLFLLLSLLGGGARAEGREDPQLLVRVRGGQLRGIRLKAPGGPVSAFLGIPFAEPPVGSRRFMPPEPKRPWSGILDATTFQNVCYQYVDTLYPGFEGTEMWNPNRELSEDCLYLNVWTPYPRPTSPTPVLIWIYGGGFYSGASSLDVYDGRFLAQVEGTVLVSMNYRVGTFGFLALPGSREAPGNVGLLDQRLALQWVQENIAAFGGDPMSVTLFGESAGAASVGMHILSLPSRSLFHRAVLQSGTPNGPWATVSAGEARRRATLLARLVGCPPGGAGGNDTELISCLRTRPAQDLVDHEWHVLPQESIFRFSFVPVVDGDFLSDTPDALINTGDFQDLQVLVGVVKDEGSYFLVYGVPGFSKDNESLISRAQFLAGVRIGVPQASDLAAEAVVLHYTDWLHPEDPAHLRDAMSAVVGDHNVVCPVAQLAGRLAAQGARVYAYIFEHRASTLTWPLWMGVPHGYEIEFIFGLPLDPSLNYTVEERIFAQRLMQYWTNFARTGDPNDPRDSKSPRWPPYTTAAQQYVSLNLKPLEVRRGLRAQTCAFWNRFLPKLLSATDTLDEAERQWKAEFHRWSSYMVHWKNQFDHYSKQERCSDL

Chain of Cholinesterase (P06276 whole entry): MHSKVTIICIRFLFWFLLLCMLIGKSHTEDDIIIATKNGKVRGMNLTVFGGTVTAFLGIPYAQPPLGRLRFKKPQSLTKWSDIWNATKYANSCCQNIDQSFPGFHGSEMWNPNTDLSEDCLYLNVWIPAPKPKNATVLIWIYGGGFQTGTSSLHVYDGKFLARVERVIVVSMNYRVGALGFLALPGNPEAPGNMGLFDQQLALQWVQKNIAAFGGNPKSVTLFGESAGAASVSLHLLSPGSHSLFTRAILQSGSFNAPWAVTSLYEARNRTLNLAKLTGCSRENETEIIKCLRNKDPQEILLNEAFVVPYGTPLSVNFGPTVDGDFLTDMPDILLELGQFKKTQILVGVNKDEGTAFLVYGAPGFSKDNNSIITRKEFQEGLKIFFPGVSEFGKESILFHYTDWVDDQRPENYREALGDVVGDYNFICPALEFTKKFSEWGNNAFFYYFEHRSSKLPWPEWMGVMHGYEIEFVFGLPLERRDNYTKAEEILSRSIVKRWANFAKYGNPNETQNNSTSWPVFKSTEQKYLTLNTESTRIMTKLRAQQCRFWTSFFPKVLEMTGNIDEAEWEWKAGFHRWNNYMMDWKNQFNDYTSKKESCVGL

c1ccc2c(NCCCCCCNc3c4c(nc5ccccc35)CCCC4)c3c(nc2c1)CCCC3
IC50 (Cholinesterase): 83 nM | IC50 (Acetylcholinesterase): 1.4 nM

c1cnc2nc3c(c(NCCCCCCCNc4c5c(nc6ncccc46)CCCC5)c2c1)CCCC3
IC50 (Cholinesterase): 59 nM | IC50 (Acetylcholinesterase): 1.3 nM

c1ccc2c(NCCCCCCCCNc3c4c(nc5ccccc35)CCCC4)c3c(nc2c1)CCCC3
IC50 (Cholinesterase): 53 nM | IC50 (Acetylcholinesterase): 1.6 nM

c1ccc2c(NCCCCCCCNc3c4c(nc5ccccc35)CCCCC4)c3c(nc2c1)CCCCC3
IC50 (Cholinesterase): 2.6 nM

c1ccc2c(NCCCCCCCCNc3c4c(nc5ccccc35)CCCCC4)c3c(nc2c1)CCCCC3
IC50 (Cholinesterase): 3.8 nM

c1ccc2c(NCCCCCCCNc3c4c(nc5ccccc35)CCCC4)c3c(nc2c1)CCCC3
IC50 (Cholinesterase): 54 nM

Fc1ccc2c(NCCCCCCNc3c4c(nc5cc(F)ccc35)CCCC4)c3c(nc2c1)CCCC3
IC50 (Cholinesterase): 45 nM | IC50 (Acetylcholinesterase): 0.9 nM

c1cnc2nc3c(c(NCCCCCCCCNc4c5c(nc6ncccc46)CCCC5)c2c1)CCCC3
IC50 (Cholinesterase): 23 nM

Clc1ccc2c(NCCCCCCCNc3c4c(nc5cc(Cl)ccc35)CCCC4)c3c(nc2c1)CCCC3
IC50 (Cholinesterase): 26 nM | IC50 (Acetylcholinesterase): 0.07 nM

c1ccc2c(NCCCCCCCNc3c4c(nc5ccccc35)CCC4)c3c(nc2c1)CCC3
IC50 (Cholinesterase): 328 nM | IC50 (Acetylcholinesterase): 75 nM

c1ccc2c(NCCCCCCNc3c4c(nc5ccccc35)CCC4)c3c(nc2c1)CCC3
IC50 (Cholinesterase): 273 nM

c1cnc2nc3c(c(NCCCCCCNc4c5c(nc6ncccc46)CCCC5)c2c1)CCCC3
IC50 (Cholinesterase): 93 nM

c1ccc2c(NCCCCCCNc3c4c(nc5ccccc35)CCCCC4)c3c(nc2c1)CCCCC3
IC50 (Cholinesterase): 3.3 nM | IC50 (Acetylcholinesterase): 2.5 nM

c1ccc2c(NCCCCCCCCNc3c4c(nc5ccccc35)CCC4)c3c(nc2c1)CCC3
IC50 (Cholinesterase): 165 nM

Fc1ccc2c(NCCCCCCCCNc3c4c(nc5cc(F)ccc35)CCCC4)c3c(nc2c1)CCCC3
IC50 (Cholinesterase): 164 nM | IC50 (Acetylcholinesterase): 0.7 nM

Fc1ccc2c(NCCCCCCCNc3c4c(nc5cc(F)ccc35)CCCC4)c3c(nc2c1)CCCC3
IC50 (Cholinesterase): 257 nM | IC50 (Acetylcholinesterase): 0.6 nM

Clc1ccc2c(NCCCCCCNc3c4c(nc5cc(Cl)ccc35)CCCC4)c3c(nc2c1)CCCC3
IC50 (Cholinesterase): 312 nM | IC50 (Acetylcholinesterase): 0.6 nM
